Reference: ChEMBL document CHEMBL1128619, “Chemoenzymatic synthesis of enantiomers of a new retinoid to investigate the role of chirality in the biological response” (Bioorg Med Chem Lett, 1995)

Key:
[1] = Half life in rat plasma was determined; type: ADME, organism-based
F9 [2] = assay: Cellular activity on the differentiation was quantified by measure of plasminogen activator in mouse embryonal teratocarcinoma F9 cells; type: functional, cell-based
F9 [3] = assay: Cellular activity on the differentiation was quantified by measure of plasminogen activator in mouse embryonal teratocarcinoma F9 cells; NA means not active; type: functional, cell-based

half-life [1] | SMILES | AC50 (F9 [2]) | AC50 (F9 [3])
138 min | CC1(C)CCC(C)(C)c2cc(COC(=O)c3ccc(C(=O)O)cc3)ccc21 | 140 nM | 
> 360 min | CC(OC(=O)c1ccc(C(=O)O)cc1)c1ccc2c(c1)C(C)(C)CCC2(C)C (stereo not drawn) | 350 nM | 
> 1440 min | C[C@H](OC(=O)c1ccc(C(=O)O)cc1)c1ccc2c(c1)C(C)(C)CCC2(C)C |  | Not Active
360 min | C[C@@H](OC(=O)c1ccc(C(=O)O)cc1)c1ccc2c(c1)C(C)(C)CCC2(C)C | 300 nM | 
